{"source": "patent US10358469B2", "about": "“Methods and pharmaceutical compositions for the treatment of cancer” (INSERM (INSTITUT NATIONAL DE LA SANTÉ ET DE LA RECHERCHE …, priority 2014, dated 2019)", "key": {"[1]": {"system": "human triple-negative breast cancer xenograft PDX02", "test": "Triple-negative breast cancer patient-derived xenograft PDX02 in nude mice", "assay_type": "in vivo", "conditions": "2.4 mg/kg i.p., 7 daily injections, FIG. 8B", "description": "Breast cancer fragments were obtained from patients at the time of surgery, with informed written patient consent. After imaging-guided human tumor biopsies had been performed, fragments of 30 to 60 mm^3 were subcutaneously grafted in 6-week-old NMRI-nude mice (Centre-Elevage-Janvier, France), under xylasin (10 mg/kg)/ketamin (100 mg/kg) anesthesia. Mice were maintained in specific pathogen-free animal housing (Institut Universitaire d'Hematologie) and received estrogen (17 mg/mL) diluted in drinking water. Xenografts were characterized and subsequently subcutaneously transplanted from mouse to mouse. […] Two human triple-negative breast cancer (HBC) xenografts models were used in our experiments (PDX01 and PDX02). […] Following transplantation (n=6 per model) tumor growth was assessed by measuring tumor size in two dimension using a Vernier caliper. Tumor volume was calculated using the formula [3.14×long axis×short axis×short axis]/6 (Kjonniksen et al., 1989). […] Mice were weighted and the tumor size was measured by a caliper and recorded daily. Fourteen days after beginning of the treatment mice were sacrificed. The tumors, kidney, lungs, heart, liver, pancreas and spleen were taken and fixed. Paraffin-embedded sections were prepared and stained with hematoxylin and eosin for histological analysis."}, "[2]": {"system": "D3H2LN cells", "test": "Transwell Boyden chamber migration assay, D3H2LN cells", "assay_type": "cell-based", "conditions": "2 μM, toward 10% FBS, 12 h, FIG. 7A", "description": "FIG. 7: Antp-AAC-11-LZ (363-399) peptide inhibits cell migration and invasion. (A) D3H2LN cells were added to the upper well of modified Boyden chamber (transwell) plates with a vehicle or with either 2 μM of the Antp-AAC-11-LZ (363-399) peptide or the Antp-only peptide and subjected to a transwell migration assay as described under Materials and methods. The cells were allowed to migrate toward 10% FBS for 12 […]h. Triplicate wells were used for each of three independent experiments. The results are expressed relative to the migration of the untreated cells (=100%). Column: Mean of three experiments. Bar: s.e. P-value was determined by Student's t-test (*P<0.01). (B) D3H2LN cells were seeded in a Matrigel-coated Boyden chamber with a vehicle or with either 2 μM of the Antp-AAC-11-LZ (363-399) peptide or the Antp-only peptide and subjected to a transwell migration assay as described under Materials and methods. The cells were allowed to migrate toward 10% FBS for 24 […]h. Triplicate wells were used for each of three independent experiments. The results are expressed relative to the migration of the untreated cells (=100%). Column: Mean of three experiments. Bar: s.e. P-value was determined by Student's t-test (*P<0.01) […]"}}, "data": [{"substance": "Ac-RQIKIWFKKQNRRMKWKKAKLNAEKLKDFKIRLQYFARGLQVYIRQLRLALQGKT-NH2 [Antp-AAC-11-LZ (363-399)]", "values": [{"measurement": "tumor size versus vehicle", "setting": "[1]", "result": "significantly smaller tumors"}, {"measurement": "cell migration", "setting": "[2]", "result": "substantially decreased"}]}]}
